According to the RepoRT retention time repository (doi:10.1021/pr300673x):

Assay: RP, 50 × 2.1 mm, 1.7 µm, 0.5 mL/min, estimated dead time 0.22 min; A: 98% water + 2% acetonitrile + 0.1% formic acid, pH 3; B: 2% water + 98% acetonitrile + 0.1% formic acid, pH 3; gradient (min/%B) 0/0 0.5/0 4/60 8/100 9/100 9.2/0 10/0
Conditions: stereoisomer not certain

| Structure (SMILES) | LC retention time [min] |
| --- | --- |
| CC(CCC(=O)O)C1CCC2C3CC(O)C4CC(O)CCC4(C)C3CCC12C (stereo not given) | 4.78 |
| CC(=CCCC(C)C1CCC2C3C(O)CC4CC(O)CCC4(C)C3CCC12C)C(=O)O (racemic) | 6.87 |
| NC(N)=NCCC(=O)O [3-guanidinopropionic acid] | 0.883 |
| C=CC1=C(C)C(=Cc2[nH]c(Cc3[nH]c(C=C4NC(=O)C(C)=C4C=C)c(C)c3CCC(=O)O)c(CCC(=O)O)c2C)NC1=O [4E,15Z-bilirubin IXa] | 7.62 |
| C=CC1=C(C)C(=O)N=C1C=c1[nH]c(=Cc2[nH]c(CC3NC(=O)C(C=C)=C3C)c(C)c2CCC(=O)O)c(CCC(=O)O)c1C (stereo not given) [15,16-dihydrobiliverdin] | 7.42 |
| NC(N)=NCCC[C@H](NCCC(=O)O)C(=O)O [L-N2-(2-carboxyethyl)arginine] | 4.28 |
| CCCCCC=CCC=CCC=CCC=CCCCC(=O)OCC(O)COP(=O)([O-])OCC[N+](C)(C)C (stereo not given) [LysoPC(20:4)] | 7.74 |
| CC(=O)C(CCCCN)NS(=O)(=O)c1ccc(C)cc1 [N-tosyl-L-lysinyl methyl ketone] | 7.42 |
| CCCCCCCCCCCCCCCCOCC(O)COP(=O)([O-])OCC[N+](C)(C)C (stereo not given) [PC(O-16:0/0:0)] | 6.42 |
| [NH3+]C(Cc1ccccc1)C(=O)NC(Cc1ccccc1)C(=O)[O-] (stereo not given) [Phe-Phe] | 2.91 |
| CC(CCC(=O)NCC(=O)O)C1CCC2C3C(O)CC4CC(O)CCC4(C)C3CCC12C (stereo not given) [glycochenodeoxycholic acid (GCDCA)] | 4.79 |
| CC(CCC(=O)NCC(=O)O)C1CCC2C3C(O)CC4CC(O)CCC4(C)C3CC(O)C12C (stereo not given) [glycocholic acid (GCA)] | 4.3 |
| CC(CCC(=O)NCC(=O)O)C1CCC2C3CCC4CC(O)CCC4(C)C3CC(O)C12C (stereo not given) [glycodeoxycholic acid (GDCA)] | 4.28 |
| CC(=O)Cc1ccccc1 [phenylmethyl methyl ketone] | 3.31 |
| CC(CCC(=O)NCCS(=O)(=O)O)C1CCC2C3C(O)CC4CC(O)CCC4(C)C3CCC12C (stereo not given) [taurochenodeoxycholic acid (TCDCA)] | 3.89 |

Next, values leading:

| LC retention time [min] | Structure (SMILES) |
| --- | --- |
| 7.39 | CCCCCCCCCCCCCCCCCC(O)CC(=O)O (stereo not given) [3-hydroxyeicosanoic acid] |
| 7.37 | CCCCCCCCCCCCCC=CC(O)C(COP(=O)(O)O)NC(=O)CCCCCCCCCCC (stereo not given) [CerP(d18:1/12:0)] |
| 6.88 | CCCCCCCCC=CCCCCCCCCCC(=O)OCC(O)COP(=O)([O-])OCC[N+](C)(C)C (stereo not given) [LysoPC(20:1)] |
| 5.71 | CCCCCCCCCC(=O)O[C@H](CC(=O)[O-])C[N+](C)(C)C [O-decanoyl-L-carnitine] |
| 5.98 | CCCCCC=CCC=CCCCCCCCC(=O)OC(CC(=O)[O-])C[N+](C)(C)C (stereo not given) [O-linoelaidylcarnitine] |
| 5.12 | CCCCCCCC(=O)O[C@H](CC(=O)[O-])C[N+](C)(C)C [O-octanoyl-R-carnitine] |
| 7.44 | CCCCCC=CCC=CCCCCCCCC(=O)O [octadecadienoic acid] |
| 7.16 | CCCCCCCCC=CCCCCCCCC(N)=O [oleamide] |
| 6.24 | CCCCCCCCC=CCCCCCCCC(=O)OC(CC(=O)[O-])C[N+](C)(C)C (stereo not given) [oleoylcarnitine] |
| 6.15 | CCCCCCCCCCCCCCCC(=O)OC(CC(=O)[O-])C[N+](C)(C)C (stereo not given) [palmitylcarnitine] |
